According to patent US7579371B2, “Methods of using [3.2.0] heterocyclic compounds and analogs thereof” (Nereus Pharmaceuticals, Inc., priority 2004, dated 2009):
Where two headings read alike, the source gives them in different places.

Legend:
Cathepsin B = Cathepsin B (Homo sapiens, UniProt P07858); test: Inhibition of Cathepsin B; assay type: biochemical
[1] = molecular target: T1, proteasome chymotrypsin-like activity in packed whole blood lysate (Mus musculus, UniProt O55234); test: Proteasome activity in packed whole blood lysate (PWBL) of treated mice; assay type: in vivo; settings: 90 minutes
T1 construct: The supernatant (Packed Whole Blood Lysate, PWBL) was transferred to a fresh tube; from tissue; host or cells: packed whole blood cells of Swiss-Webster mice (lysate)
T1 sequence (O55234 60-264): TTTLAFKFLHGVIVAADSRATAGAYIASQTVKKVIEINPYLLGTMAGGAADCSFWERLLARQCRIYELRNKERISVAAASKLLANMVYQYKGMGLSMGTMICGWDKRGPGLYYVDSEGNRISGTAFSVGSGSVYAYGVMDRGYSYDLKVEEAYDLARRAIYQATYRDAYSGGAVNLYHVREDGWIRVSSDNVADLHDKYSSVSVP
Experimental: In brief, frozen whole blood samples were thawed on ice for one hour, and resuspended in 700 μL of ice cold 5 mM EDTA, pH 8.0 in order to lyse the cells by hypotonic shock. This represents approximately 2-3 times the volume of the packed whole blood cells. Lysis was allowed to proceed for one hour, and the cellular debris was removed by centrifugation at 14,000×g for 10 minutes. The supernatant (Packed Whole Blood Lysate, PWBL) was transferred to a fresh tube, and the pellet discarded. Protein concentration of the PWBL was determined by BCA assay (Pierce) using BSA as a standard.
Proteasome activity was determined by measuring the hydrolysis of a fluorogenic substrate specific for the chymotrypsin-like activity of proteasomes (suc-LLVY-AMC, Bachem Cat. I-1395). […] Hydrolysis of the substrate results in the release of free AMC, which was measured fluorometrically by using λex=390 nm and λem=460 nm. The rate of hydrolysis in this system is linear for at least one hour. The hydrolysis rate of each sample is then normalized to relative fluorescent units per milligram of protein (RFU/mg).
The vehicle control consisted of 2% DMSO in 10% solutol. […] Packed whole blood cells were collected by centrifugation, washed with PBS, and re-centrifuged. All samples were stored at −80° C. prior to the evaluation of the proteasome activity. […]

[2] = test system: 20S proteasome chymotrypsin-like activity in RPMI 8226 cells; test: Chymotrypsin-like activity of 20S proteasomes in treated RPMI 8226 cells; assay type: cell-based, human; settings: 1 nM, 1 hr
Experimental: RPMI 8226 (ATCC, CCL-155), the human multiple myeloma cell line, was cultured in RPMI 1640 medium supplemented with 2 mM L-glutamine, 100 units/ml penicillin, 100 μg/ml streptomycin, 1 mM sodium pyruvate and 10% heat inactivated fetal bovine serum at 37° C., 5% CO2 and 95% humidified air. […] DMSO was used as the vehicle control at a final concentration of 0.1%. Following 1 hr incubation of RMPI 8226 cells with the compounds, the cells were pelleted by centrifugation at 2,000 rpm for 10 sec at room temperature and washed 3× with ice-cold 1× Dulbecco's Phosphate-Buffered Saline (DPBS, Mediatech, Herndon, Va.). DPBS washed cells were lysed on ice for 15 min in lysis buffer (20 mM HEPES, 0.5 mM EDTA, 0.05% Triton X-100, pH 7.3) supplemented with protease inhibitor cocktail (Roche Diagnostics, Indianapolis, Ind.). Cell debris was pelleted by centrifugation at 14,000 rpm for 10 min, 4° C. and supernatants (=cell lysates) were transferred to a new tube. Protein concentration was determined by the BCA protein assay kit (Pierce Biotechnology, Rockford, Ill.). […] The released coumarin (AMC) was measured fluorometrically by using λex=390 nm and λem=460 nm. The assay was performed in a microtiter plate (Corning 3904) and followed kinetically with measurements every five minutes for 2 hr. The total amount of protein used for each assay was 20 μg. […]

Caspase-3 = Caspase-3 activity assay in Jurkat cells; assay type: cell-based, human; settings: EC50 concentration, 19 hours
Experimental: Jurkat cells were plated at 2×10^6 cells/3 mL per well in a 6-well plate and incubated at 37° C., 5% (v/v) CO2 and 95% (v/v) humidity. […] Bhalla, et al., Blood 82:3133 (1993). […] Cells treated with 0.25% DMSO served as the negative control. The cells were collected by centrifugation and the media removed. Cell pellets were processed for the Caspase-3 activity assay as described in the manufacturer's protocol (EnzChek Caspase-3 Assay Kit from Molecular Probes (E-13183; see Appendix G, which form a part of this application and is also available at hypertext transfer protocol on the worldwide web at “probes.com.media/pis/mp13183.pdf.”. In brief, cell pellets were lysed on ice, mixed with the EnzChek Caspase-3 components in a 96-well plate, and then incubated in the dark for 30 minutes prior to reading fluorescence of cleaved benzyloxycarbonyl-DEVD-[…] using a Packard Fusion with λex=485 nm and λem=530 nm filters. Protein concentrations for lysates were determined using the BCA Protein Assay Kit (Pierce) and these values were used for normalization.

RPMI 8226 cells = test: PARP and Pro-Caspase 3 cleavage in RPMI 8226 cells (western blot); assay type: cell-based, human; settings: 100 nM; 0, 8 or 24 hours
Experimental: Total protein lysates were made and 20 μg of the lysates were then resolved under reducing/denaturing conditions and blotted onto nitrocellulose. The blots were then probed with anti-PARP or anti-caspase 3 antibodies followed by stripping and reprobing with an anti-actin antibody.
25 μg of the lysates were then resolved under reducing/denaturing conditions and blotted onto nitrocellulose. The blots were then probed with anti-PARP or anti-caspase 3 antibodies followed by stripping and reprobing with an anti-actin antibody.

tumor cell lines = test: Growth inhibition / cytotoxicity, summary over tumor cell lines; assay type: cell-based
HL-60 = test: cells; settings: Homo sapiens, HL-60, 48 h

C[C@@]12OC(=O)[C@]1([C@@H](O)[C@@H]1C=CCCC1)NC(=O)[C@@H]2CCCl [Formula II-16, Salinosporamide A]
EC50 (Cathepsin B): > 200000 nM | proteasomal activity in PWBL after oral administration [1]: active upon oral administration | % inhibition of the chymotrypsin-like activity of 20S proteasomes in RPMI 8226 cell lysates [2]: 30 ± 7% | Caspase-3 activity (Caspase-3): activation of Caspase-3 | cleavage of PARP and Pro-caspase 3 (RPMI 8226 cells): cleavage of PARP and Pro-caspase 3 in a time-dependent manner | EC50 (tumor cell lines; RPMI 8226, PC-3, DU 145, 48 hour, read-out: EC50 values against RPMI 8226 and the prostate cell lines, range): 10 to 37 nM | EC50 (tumor cell lines; read-out: EC50 values for cytotoxicity, range): 10 to 200 nM | EC50 (HL-60): 27 nM
